{"source": "patent EP1464341B1", "about": "“Ubiquinone-containing water-soluble formulation for ophthalmic use” (Visufarma S.p.A, priority 2003, dated 2004)", "key": {"[1]": {"conditions": "cited from earlier work"}, "[2]": {"assay": "Pharmacokinetic incorporation of the hydrophilic collyrium in rabbit cornea, retina and plasma (CoQ10 concentration)", "assay_type": "in vivo", "conditions": "for RETINA Q10-treated, Average / RETINA Q10-treated: retina of treated eye", "method": "Assessment of the pharmacokinetic activity of incorporation of the hydrophilic collyrium in rabbit cornea, retina and plasma.\na) The hydrophilic collyrium was assayed on a first lot of three rabbits by instilling Coenzyme Q10 in the right eye and an equivalent excipient free from Q10 and vitamin E TPQS in the contralateral (basal) eye. At + 15 min from the collyrium instillation, CoQ10 concentration in the treated eye and in the other (basal) eye was analysed. The analysis was performed on the retina, the cornea and the plasma of the two eyes.\nb) .A second lot of six rabbits was subjected to an analogous assay in which the waiting time was prolonged up to 30 min."}, "[3]": {"test_system": "superoxide anion generated by human PMNs (polymorphonucleates)", "conditions": "human PMNs suitably stimulated; Ferrocytochrome C method"}, "[4]": {"conditions": "treated minus basal, 15 min, average of 3 rabbits"}, "[5]": {"conditions": "treated vs basal, 15 min, average of 3 rabbits"}}, "note": "Where “and” joins values, the source holds several entries; their conditions need not be identical. Equal values may be shown once."}
{"molecule": "COC1=C(OC)C(=O)C(C/C=C(\\C)CC/C=C(\\C)CC/C=C(\\C)CC/C=C(\\C)CC/C=C(\\C)CC/C=C(\\C)CC/C=C(\\C)CC/C=C(\\C)CC/C=C(\\C)CCC=C(C)C)=C(C)C1=O", "note": "[Formulation Q10, Ubiquinone Q10]", "values": [{"measurement": "solubility in water", "setting": "[1]", "result": "totally insoluble in water"}, {"measurement": "incorporation in the cornea", "setting": "[2]; at both times considered (15 min and 30 min)", "result": "scarce"}, {"measurement": "CORNEA Q10-treated, Average", "setting": "[2]; cornea of treated eye, 15 min, average of 3 rabbits", "result": 1004, "unit": "pmoles/g"}, {"measurement": "CORNEA Q10-treated", "setting": "[2]; cornea of treated eye, 15 min, individual rabbits N. 15-17", "result": "887 pmoles/g and 955 pmoles/g and 1170 pmoles/g"}, {"measurement": "CORNEA Difference, Average", "setting": "[2]; cornea, treated minus basal, 15 min, average of 3 rabbits", "result": 74, "unit": "pmol/g"}, {"measurement": "CORNEA Difference", "setting": "[2]; cornea, treated minus basal, 15 min, individual rabbits", "result": "-34 pmol/g and 377 pmol/g and -150 pmol/g"}, {"measurement": "CORNEA %Increase, Average", "setting": "[2]; cornea, treated vs basal, 15 min, average of 3 rabbits", "result": 7, "unit": "%"}, {"measurement": "CORNEA %Increase", "setting": "[2]; cornea, treated vs basal, 15 min, individual rabbits", "result": "-3% and 65% and -11%"}, {"measurement": "CORNEA %Increase, Average", "setting": "[2]; cornea, treated vs basal, 30 min, average of 6 rabbits", "result": 4, "unit": "%"}, {"measurement": "CORNEA %Increase", "setting": "[2]; cornea, treated vs basal, 30 min, individual rabbits", "result": "-17% and 16% (2×) and 24% and -7% and -16%"}, {"measurement": "PLASMA Q10-treated, Average", "setting": "[2]; 15 min, average of 3 rabbits", "result": 74, "unit": "pmoles/g"}, {"measurement": "PLASMA Q10-treated", "setting": "[2]; 15 min, individual rabbits N. 15-17", "result": "62 pmoles/g and 83 pmoles/g and 78 pmoles/g"}, {"measurement": "PLASMA Q10-treated, Average", "setting": "[2]; 30 min, average of 6 rabbits", "result": 83, "unit": "pmoles/g"}, {"measurement": "PLASMA Q10-treated", "setting": "[2]; 30 min, individual rabbits N. 18-23", "result": "79 pmoles/g and 105 pmoles/g and 106 pmoles/g and 53 pmoles/g and 81 pmoles/g and 73 pmoles/g"}, {"measurement": "PLASMA Difference, Average", "setting": "[2]; [4]", "result": 10, "unit": "pmol/g"}, {"measurement": "PLASMA Difference", "setting": "[2]; treated minus basal, 15 min, individual rabbits", "result": "8 pmol/g and 6 pmol/g and 17 pmol/g"}, {"measurement": "PLASMA Difference, Average", "setting": "[2]; treated minus basal, 30 min, average of 6 rabbits", "result": 13, "unit": "pmol/g"}, {"measurement": "PLASMA Difference", "setting": "[2]; treated minus basal, 30 min, individual rabbits", "result": "14 pmoles/g (2×) and 7 pmoles/g and 23 pmoles/g and 10 pmoles/g and 8 pmoles/g"}, {"measurement": "PLASMA %Increase, Average", "setting": "[2]; [5]", "result": 16, "unit": "%"}, {"measurement": "PLASMA %Increase", "setting": "[2]; treated vs basal, 15 min, individual rabbits", "result": "15% and 8% and 28%"}, {"measurement": "PLASMA %Increase, Average", "setting": "[2]; treated vs basal, 30 min, average of 6 rabbits", "result": 18, "unit": "%"}, {"measurement": "PLASMA %Increase", "setting": "[2]; treated vs basal, 30 min, individual rabbits", "result": "21% (2×) and 7% and 28% and 23% and 12%"}, {"measurement": "RETINA Q10-treated, Average", "setting": "[2]; 15 min, average of 3 rabbits", "result": 754, "unit": "pmoles/g"}, {"measurement": "RETINA Q10-treated", "setting": "[2]; 15 min after instillation, individual rabbits N. 15-17", "result": "787 pmoles/g and 632 pmoles/g and 843 pmoles/g"}, {"measurement": "RETINA Q10-treated, Average", "setting": "[2]; second lot (30 min; head prints 15 min), average of 6 rabbits", "result": 1084.3, "unit": "pmoles/g"}, {"measurement": "RETINA Q10-treated", "setting": "[2]; second lot (waiting time 30 min; head prints 15 min), individual rabbits N. 18-23", "result": "1006 pmoles/g and 1394 pmoles/g and 1037 pmoles/g and 725 pmoles/g and 975 pmoles/g and 1369 pmoles/g"}, {"measurement": "RETINA Difference", "setting": "[2]; treated minus basal (contralateral) eye, 15 min, individual rabbits", "result": "-82 pmol/g and 14 pmol/g and 83 pmol/g"}, {"measurement": "RETINA Difference, Average", "setting": "[2]; [4]", "result": 5, "unit": "pmol/g"}, {"measurement": "RETINA Difference, Average", "setting": "[2]; treated minus basal, second lot (30 min; head prints 15 min), average of 6 rabbits", "result": 138.8, "unit": "pmol/g"}, {"measurement": "RETINA Difference", "setting": "[2]; treated minus basal, second lot (30 min; head prints 15 min), individual rabbits", "result": "177 pmol/g and 57 pmol/g and 106 pmol/g and 74 pmol/g and 211 pmol/g and 208 pmol/g"}, {"measurement": "RETINA %Increase, Average", "setting": "[2]; treated vs basal (contralateral eye), second lot (30 min; head prints 15 min), average of 6 rabbits", "result": 15, "unit": "%"}, {"measurement": "RETINA % Increase", "setting": "[2]; treated vs basal eye, 15 min, individual rabbits", "result": "-9% and 2% and 11%"}, {"measurement": "RETINA %Increase, Average", "setting": "[2]; [5]", "result": 1, "unit": "%"}, {"measurement": "RETINA % Increase", "setting": "[2]; treated vs basal, second lot (30 min; head prints 15 min), individual rabbits", "result": "21% and 4% and 11% (2×) and 28% and 18%"}]}
{"molecule": "d-Alpha-tocopheryl polyethylene glycol 1000-succinate [vitamin E TPGS]", "values": [{"measurement": "scavenging action with regards to the superoxide anion", "setting": "[3]", "result": "scavenging action"}]}
